Experimental data as given in ChEMBL document CHEMBL5727726, “Pyridine sulfonamides” (2020).

Test: Nav 1.7In Vitro PX Assay: HEK 293 cells stably transfected with human Nav1.7 were recorded in whole cell voltage clamp mode with the PatchXpress automated electrophysiology system (Molecular Devices, LLC, Sunnyvale, Calif.). Compound effects were measured on a partially inactivated state of the sodium channel. Cells were clamped to a holding potential yielding 20 to 50% inactivation. To elicit sodium current, channels were activated by pulsing to −10 mV for 20 msec. This voltage protocol was repeated at a rate of 0.1 Hz throughout the experiment. A single concentration of test compound was applied to cells for a duration of 3 minutes. Peak sodium current was measured at the end of the compound addition period to determine percent inhibition. Three to five cells were tested per concentration, and IC50 curves were fitted to percent inhibition as a function of concentration.
Conditions: HEK293

Row | Structure (SMILES) | IC50 [µM]
1 | CNC(=O)N(c1ccc(S(=O)(=O)Nc2ccon2)cn1)c1cc(Cl)c(-c2cc(F)cc(Cl)c2)cc1OC | 0.028
2 | CNC(=O)N(c1ccc(S(=O)(=O)Nc2ccon2)cn1)c1cc(F)c(-c2cc(F)c(F)c(F)c2)cc1OC | 0.086
